Measurements as given in patent publication US12077555B2, “STAT degraders and uses thereof” (Kymera Therapeutics, Inc., priority 2019, dated 2024).

molecular target: STAT3 (Homo sapiens, UniProt P40763); assay: STAT3 HiBiT degradation assay in transfected A549 cells; assay type: cell-based; design: expressed in transfected cells; host or cells: A549; conditions: A549, 24 h; read-out: STAT3 HiBiT A549 degradation 24 h: Average external-Abs DC50
How it was run: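 Degradation read as HiBiT-tagged STAT3 luminescence (Nano-Glo lytic reagent, 10 min, room temperature) following 24 h compound treatment of transfected A549 cells at 3-fold, 10 points. Percent remaining signal computed against controls and fitted with a four-parameter logistic; DC50 reported as letter bins (A <0.01 to D >1.0 µM).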

STAT3, sequence (P40763 whole entry): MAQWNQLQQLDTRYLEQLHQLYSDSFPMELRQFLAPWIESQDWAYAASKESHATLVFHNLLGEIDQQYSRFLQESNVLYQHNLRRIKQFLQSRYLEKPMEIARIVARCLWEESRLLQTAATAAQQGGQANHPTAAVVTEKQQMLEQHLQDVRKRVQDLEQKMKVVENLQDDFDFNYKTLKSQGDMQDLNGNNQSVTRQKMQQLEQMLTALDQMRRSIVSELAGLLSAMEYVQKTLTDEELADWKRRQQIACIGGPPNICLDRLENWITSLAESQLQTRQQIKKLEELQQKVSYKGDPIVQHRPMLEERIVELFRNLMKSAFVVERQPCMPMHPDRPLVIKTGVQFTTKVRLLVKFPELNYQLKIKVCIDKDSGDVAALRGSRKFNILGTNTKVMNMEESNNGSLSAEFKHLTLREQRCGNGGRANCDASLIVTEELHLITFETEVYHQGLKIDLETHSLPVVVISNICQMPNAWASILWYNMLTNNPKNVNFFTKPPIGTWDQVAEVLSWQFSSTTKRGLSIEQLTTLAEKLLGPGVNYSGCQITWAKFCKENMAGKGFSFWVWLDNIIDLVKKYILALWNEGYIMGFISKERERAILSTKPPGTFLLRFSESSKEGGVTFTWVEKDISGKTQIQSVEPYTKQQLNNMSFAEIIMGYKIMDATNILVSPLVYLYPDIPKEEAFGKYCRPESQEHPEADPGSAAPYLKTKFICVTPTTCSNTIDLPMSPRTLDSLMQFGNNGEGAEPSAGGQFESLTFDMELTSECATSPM

First: Cc1ccc(CCCCCC(=O)N[C@H](C(=O)N2C[C@H](O)C[C@H]2C(=O)N[C@@H](C)c2ccc(-c3scnc3C)cc2)C(C)(C)C)cc1OC[C@H](CCC(N)=O)NC(=O)[C@@H]1Cc2cccc3c2N1C(=O)[C@@H](NC(=O)c1cc2cc(C(=O)P(=O)(O)O)ccc2[nH]1)CC3 [Compound I-214, 2-[[(2S,11S)-2-[[(2S)-4-carbamoyl-1-[5-(5-[[(2S)-1-[(2S,4R)-4-hydroxy-2-[[(1S)-1-[4-(4-methyl-1,3-thiazol-5-yl)phenyl]ethyl]carbamoyl]pyrrolidin-1-yl]-3,3-dimethyl-1-oxobutan-2-yl]carbamoyl]pentyl)-2-methylphenoxy]butan-2-yl]carbamoyl]-12-oxo-1-azatricyclo[6.4.1.0^[4,13]]trideca-4(13),5,7-trien-11-yl]carbamoyl]-1H-indole-5-carbonylphosphonic acid]
Second: Cc1ccc(OC[C@H](CCC(N)=O)NC(=O)[C@@H]2Cc3cccc4c3N2C(=O)[C@@H](NC(=O)c2cc3cc(C(=O)P(=O)(O)O)ccc3[nH]2)CC4)cc1CCCCCC(=O)N[C@H](C(=O)N1C[C@H](O)C[C@H]1C(=O)N[C@@H](C)c1ccc(-c2scnc2C)cc1)C(C)(C)C [Compound I-212, 2-[[(2S,11S)-2-[[(2S)-4-carbamoyl-1-[3-(5-[[(2S)-1-[(2S,4R)-4-hydroxy-2-[[(1S)-1-[4-(4-methyl-1,3-thiazol-5-yl)phenyl]ethyl]carbamoyl]pyrrolidin-1-yl]-3,3-dimethyl-1-oxobutan-2-yl]carbamoyl]pentyl)-4-methylphenoxy]butan-2-yl]carbamoyl]-12-oxo-1-azatricyclo[6.4.1.0^[4,13]]trideca-4(13),5,7-trien-11-yl]carbamoyl]-1H-indole-5-carbonylphosphonic acid]
The DC50 of the first is higher: over 1000 nM for the first, 10 to 100 nM for the second.

Compared with CC(=O)N1CC[C@H]2CC[C@@H](C(=O)N[C@@H](CCC(N)=O)C(=O)NCCCCCCCCC(=O)N[C@H](C(=O)N3C[C@H](O)C[C@H]3C(=O)NCc3ccc(-c4scnc4C)cc3)C(C)(C)C)N2C(=O)[C@@H](NC(=O)c2cc3cc(C(=O)P(=O)(O)O)ccc3[nH]2)C1 [Compound I-173], CC(=O)N1CC[C@H]2CC[C@@H](C(=O)N[C@@H](CCC(=O)O)COc3cc(C)cc(CCCC(=O)N[C@H](C(=O)N4C[C@H](O)C[C@H]4C(=O)N[C@@H](C)c4ccc(-c5scnc5C)cc4)C(C)(C)C)c3F)N2C(=O)[C@@H](NC(=O)c2cc3cc(C(=O)P(=O)(O)O)ccc3[nH]2)C1 [Compound I-290] is lower in DC50: over 1000 nM for the first, under 10 nM for the second.

C/C(=C\C(=O)N[C@H]1CCc2cccc3c2N(C1=O)[C@H](C(=O)N[C@@H](CCC(N)=O)[C@@H](C)OCc1ccc(CCCCC(=O)N[C@H](C(=O)N2C[C@@H](O)C[C@H]2C(=O)NCc2ccc(-c4scnc4C)cc2)C(C)(C)C)cc1)C3)c1ccc(C(F)(F)P(=O)(O)O)cc1 [Compound I-119] and Cc1ncsc1-c1ccc(CNC(=O)[C@@H]2C[C@@H](O)CN2C(=O)[C@@H](NC(=O)CCc2ccc3ccc(CO[C@H](C)[C@H](CCC(N)=O)NC(=O)[C@@H]4Cc5cccc6c5N4C(=O)[C@@H](NC(=O)c4cc5cc(C(=O)P(=O)(O)O)ccc5[nH]4)CC6)cc3c2)C(C)(C)C)cc1 [Compound I-126] cannot be ordered by DC50: over 1000 nM for the first, over 1000 nM for the second.

Cc1ncsc1-c1ccc(CNC(=O)[C@@H]2C[C@@H](O)CN2C(=O)[C@@H](NC(=O)CCC2CCN(c3ccc(CO[C@H](C)[C@H](CCC(N)=O)NC(=O)[C@@H]4Cc5cccc6c5N4C(=O)[C@@H](NC(=O)c4cc5cc(C(=O)P(=O)(O)O)ccc5[nH]4)CC6)cc3)CC2)C(C)(C)C)cc1 [Compound I-160, diammonium 2-[[(2S,11S)-2-[[(3S,4R)-1-carbamoyl-4-([4-[4-(2-[[(2S)-1-[(2S,4R)-4-hydroxy-2-([[4-(4-methyl-1,3-thiazol-5-yl)phenyl]methyl]carbamoyl)pyrrolidin-1-yl]-3,3-dimethyl-1-oxobutan-2-yl]carbamoyl]ethyl)piperidin-1-yl]phenyl]methoxy)pentan-3-yl]carbamoyl]-12-oxo-1-azatricyclo[6.4.1.0^4,13]]trideca-4(13),5,7-trien-11-yl]carbamoyl]-1H-indole-5-carbonylpho sphonate] and Cc1ncsc1-c1ccc(CNC(=O)C2C[C@@H](O)CN2C(=O)[C@@H](NC(=O)CC2CC(c3ccc(CO[C@H](C)[C@H](CCC(N)=O)NC(=O)[C@@H]4Cc5cccc6c5N4C(=O)[C@@H](NC(=O)c4cc5cc(C(=O)P(=O)(O)O)ccc5[nH]4)CC6)cc3)C2)C(C)(C)C)cc1 (stereo partly shown) [Compound I-176] cannot be ordered by DC50: over 1000 nM for the first, over 1000 nM for the second.

Compared with Cc1cc(CO[C@H](C)[C@H](CCC(N)=O)NC(=O)[C@@H]2Cc3cccc4c3N2C(=O)[C@@H](NC(=O)c2cc3cc(C(=O)P(=O)(O)O)ccc3[nH]2)CC4)ccc1CCCCC(=O)N[C@H](C(=O)N1C[C@H](O)C[C@H]1C(=O)N[C@@H](C)c1ccc(-c2scnc2C)cc1)C(C)(C)C [Compound I-218, diammonium 2-[[(2S,11S)-2-[[(3S,4R)-1-carbamoyl-4-[[4-(4-[[(2S)-1-[(2S,4R)-4-hydroxy-2-[[(1S)-1-[4-(4-methyl-1,3-thiazol-5-yl)phenyl]ethyl]carbamoyl]pyrrolidin-1-yl]-3,3-dimethyl-1-oxobutan-2-yl]carbamoyl]butyl)-3-methylphenyl]methoxy]pentan-3-yl]carbamoyl]-12-oxo-1-azatricyclo[6.4.1.0^[4,13]]trideca-4(13),5,7-trien-11-yl]carbamoyl]-1H-indole-5-carbonylphosphonate], Cc1cc(CCCCC(=O)N[C@H](C(=O)N2C[C@H](O)C[C@H]2C(=O)N[C@@H](C)c2ccc(-c3scnc3C)cc2)C(C)(C)C)ccc1CO[C@H](C)[C@H](CCC(N)=O)NC(=O)[C@@H]1Cc2cccc3c2N1C(=O)[C@@H](NC(=O)c1cc2cc(C(=O)P(=O)(O)O)ccc2[nH]1)CC3 [Compound I-226, 2-[[(2S,11S)-2-[[(3S,4R)-1-carbamoyl-4-[[4-(4-[[(2S)-1-[(2S,4R)-4-hydroxy-2-[[(1S)-1-[4-(4-methyl-1,3-thiazol-5-yl)phenyl]ethyl]carbamoyl]pyrrolidin-1-yl]-3,3-dimethyl-1-oxobutan-2-yl]carbamoyl]butyl)-2-methylphenyl]methoxy]pentan-3-yl]carbamoyl]-12-oxo-1-azatricyclo[6.4.1.0^[4,13]]trideca-4(13),5,7-trien-11-yl]carbamoyl]-1H-indole-5-carbonylphosphonic acid] is higher in DC50: under 10 nM for the first, 10 to 100 nM for the second.

Cn1c(=O)n(C2CCC(=O)NC2=O)c2ccc(C[C@H]3CC[C@@H](CC(=O)N4CC[C@H]5CC[C@@H](C(=O)N[C@@H](CCC(N)=O)C(=O)NCc6cccc7ccccc67)N5C(=O)[C@@H](NC(=O)c5cc6cc(C(=O)P(=O)(O)O)ccc6[nH]5)C4)CC3)cc21 (stereo partly drawn) [Compound I-197, 2-[[(5S,8S,10aR)-8-[[(1S)-3-carbamoyl-1-[(naphthalen-1-ylmethyl)carbamoyl]propyl]carbamoyl]-6-oxo-3-[2-[(1S,4S)-4-[[1-(2,6-dioxopiperidin-3-yl)-3-methyl-2-oxo-1,3-benzodiazol-5-yl]methyl]cyclohexyl]acetyl]-octahydropyrrolo[1,2-a][1,5]diazocin-5-yl]carbamoyl]-1H-indole-5-carbonylphosphonic acid] and Cn1c(=O)n(C2CCC(=O)NC2=O)c2ccc(N3CCC(CCCC(=O)N4CC[C@H]5CC[C@@H](C(=O)N[C@@H](CCC(N)=O)C(=O)NC(c6ccccc6)c6ccccc6)N5C(=O)[C@@H](NC(=O)c5cc6cc(C(=O)P(=O)(O)O)ccc6[nH]5)C4)CC3)cc21 (stereo partly drawn) [Compound I-128, 2-[[(5S,8S,10aR)-8-[[(1S)-3-carbamoyl-1-(diphenylmethylcarbamoyl)propyl]carbamoyl]-3-(4-[1-[1-(2,6-dioxopiperidin-3-yl)-3-methyl-2-oxo-1,3-benzodiazol-5-yl]piperidin-4-yl]butanoyl)-6-oxo-octahydropyrrolo[1,2-a][1,5]diazocin-5-yl]carbamoyl]-1H-indole-5-carbonylphosphonic acid] fall in the same range of DC50: 100 to 1000 nM for the first, 100 to 1000 nM for the second.

Cn1c(=O)n(C2CCC(=O)NC2=O)c2ccc(N3CCN(CCC(=O)N4CC[C@H]5CC[C@@H](C(=O)N[C@@H](CCC(N)=O)C(=O)NC(c6ccccc6)c6ccccc6)N5C(=O)[C@@H](NC(=O)c5cc6cc(C(=O)P(=O)(O)O)ccc6[nH]5)C4)CC3)cc21 (stereo partly drawn) [Compound I-175, 2-[[(5S,8S,10aR)-8-[[(1S)-3-carbamoyl-1-(diphenylmethylcarbamoyl)propyl]carbamoyl]-3-(3-[4-[1-(2,6-dioxopiperidin-3-yl)-3-methyl-2-oxo-1,3-benzodiazol-5-yl]piperazin-1-yl]propanoyl)-6-oxo-octahydropyrrolo[1,2-a][1,5]diazocin-5-yl]carbamoyl]-1H-indole-5-carbonylphosphonic acid] and Cn1c(=O)n(C2CCC(=O)NC2=O)c2ccc(NCCCCCC(=O)N3CC[C@H]4CC[C@@H](C(=O)N[C@@H](CCC(N)=O)C(=O)NC(c5ccccc5)c5ccccc5)N4C(=O)[C@@H](NC(=O)c4cc5cc(C(=O)P(=O)(O)O)ccc5[nH]4)C3)cc21 (stereo partly drawn) [Compound I-132, 2-[[(5S,8S,10aR)-8-[[(1S)-3-carbamoyl-1-(diphenylmethylcarbamoyl)propyl]carbamoyl]-3-(6-[[1-(2,6-dioxopiperidin-3-yl)-3-methyl-2-oxo-1,3-benzodiazol-5-yl]amino]hexanoyl)-6-oxo-octahydropyrrolo[1,2-a][1,5]diazocin-5-yl]carbamoyl]-1H-indole-5-carbonylphosphonic acid] fall in the same range of DC50: 100 to 1000 nM for the first, 100 to 1000 nM for the second.

First: Cc1ncsc1-c1ccc([C@H](C)NC(=O)[C@@H]2C[C@@H](O)CN2C(=O)[C@@H](NC(=O)CCCCc2cccc(NC(=O)[C@H](CCC(N)=O)NC(=O)[C@@H]3Cc4cccc5c4N3C(=O)C(CC(=O)c3cc4ccc(C(=O)P(=O)(O)O)cc4[nH]3)CC5)c2)C(C)(C)C)cc1 (stereo partly shown) [Compound I-280]
Second: Cc1ncsc1-c1ccc([C@H](C)NC(=O)[C@@H]2C[C@@H](O)CN2C(=O)[C@@H](NC(=O)CCCCCc2cccc(NC(=O)[C@H](CCC(N)=O)NC(=O)[C@@H]3Cc4cccc5c4N3C(=O)[C@@H](NC(=O)c3cc4cc(C(=O)P(=O)(O)O)ccc4[nH]3)CC5)c2C)C(C)(C)C)cc1 [Compound I-259]
The DC50 of the first is lower: 10 to 100 nM for the first, 100 to 1000 nM for the second.
